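Test compounds were applied to cells in 96-well plates for 48 hours at 5 doses. Abbreviation: GI50, concentration required for 50% inhibition of growth.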 Calls of active or inactive are those of the source. Cut-off read from the data, not from the text of the source: active = GI50 up to about 1.1 µM and inactive = higher.
Legend:
Test in all cases: DTP human tumour cell line panel, 48 h
786-0 = system: 786-0
ACHN = system: ACHN
BT-549 = system: BT-549
DU-145 = system: DU-145
HCT-15 = system: HCT-15
Hs-578T = system: Hs-578T
M14 = system: M14
MCF7 = system: MCF7
MDA-MB-435 = system: MDA-MB-435
NCI-H460 = system: NCI-H460
NCI/ADR-RES = system: NCI/ADR-RES
OVCAR-5 = system: OVCAR-5
SK-MEL-2 = system: SK-MEL-2
SNB-75 = system: SNB-75
SW-620 = system: SW-620
TK-10 = system: TK-10
UACC-257 = system: UACC-257
UACC-62 = system: UACC-62
SF-295 = system: SF-295
SK-OV-3 = system: SK-OV-3

Structure (SMILES) | GI50 (786-0) | GI50 (ACHN) | GI50 (BT-549) | GI50 (DU-145) | GI50 (HCT-15) [µM] | GI50 (Hs-578T) | GI50 (M14) | GI50 (MCF7) | GI50 (MDA-MB-435) | GI50 (NCI-H460) | GI50 (NCI/ADR-RES) | GI50 (OVCAR-5) | GI50 (SK-MEL-2) | GI50 (SNB-75) | GI50 (SW-620) | GI50 (TK-10) | GI50 (UACC-257) | GI50 (UACC-62) | GI50 (SF-295) | GI50 (SK-OV-3)
CCSC1=C(C#N)C2(CCCCC2)C2=C(O)CC(C)(C)CC2=N1 | 31.8 µM (inactive) | 24.7 µM (inactive) | 14.2 µM (inactive) | 25.5 µM (inactive) | 64.7 | 52.1 µM (inactive) | > 100 µM (inactive) | 48.3 µM (inactive) | 42.1 µM (inactive) | < 0.01 µM (active) | 39.4 µM (inactive) | > 100 µM (inactive) | 54.8 µM (inactive) | 21.9 µM (inactive) | > 100 µM (inactive) | 11.1 µM (inactive) | 5.96 µM (inactive) | 25.6 µM (inactive) | – | –
O=C(CC(O)(C(F)(F)F)C(F)(F)F)c1cccs1 | > 10 µM (inactive) | > 10 µM (inactive) | > 10 µM (inactive) | > 10 µM (inactive) | > 10 | > 10 µM (inactive) | > 10 µM (inactive) | > 10 µM (inactive) | > 10 µM (inactive) | – | > 10 µM (inactive) | – | – | > 10 µM (inactive) | > 10 µM (inactive) | > 10 µM (inactive) | > 10 µM (inactive) | > 10 µM (inactive) | > 10 µM (inactive) | > 10 µM (inactive)
Cc1nc(N(C(C)C)C(C)C)c(C(C)C)o1 | > 100 µM (inactive) | > 100 µM (inactive) | > 100 µM (inactive) | > 100 µM (inactive) | > 100 | > 100 µM (inactive) | > 100 µM (inactive) | > 100 µM (inactive) | > 100 µM (inactive) | > 100 µM (inactive) | > 100 µM (inactive) | > 100 µM (inactive) | – | > 100 µM (inactive) | > 100 µM (inactive) | > 100 µM (inactive) | > 100 µM (inactive) | > 100 µM (inactive) | > 100 µM (inactive) | > 100 µM (inactive)
Cc1nc2ccc(Cl)cc2c2c1CCO2 | > 100 µM (inactive) | 86.5 µM (inactive) | 92.9 µM (inactive) | 86.5 µM (inactive) | 90.2 | > 100 µM (inactive) | – | > 100 µM (inactive) | > 100 µM (inactive) | 54.2 µM (inactive) | > 100 µM (inactive) | – | – | 69.3 µM (inactive) | > 100 µM (inactive) | 64.7 µM (inactive) | > 100 µM (inactive) | 71.9 µM (inactive) | 75.7 µM (inactive) | –
O=c1[nH]c2nc3ccccc3c(=O)n2/c1=C/c1ccc(Cl)cc1 | 24.2 µM (inactive) | 65.3 µM (inactive) | 16.9 µM (inactive) | 33.3 µM (inactive) | 27.2 | 20.8 µM (inactive) | 36.9 µM (inactive) | 50.1 µM (inactive) | 21.7 µM (inactive) | – | 26.2 µM (inactive) | 63.5 µM (inactive) | > 100 µM (inactive) | – | 17.9 µM (inactive) | 58.5 µM (inactive) | 30.7 µM (inactive) | 33.3 µM (inactive) | 54.6 µM (inactive) | > 100 µM (inactive)
OC1[C@H](O)CN(OCc2ccccc2)C[C@@H]1O (stereo not given in full) | > 100 µM (inactive) | > 100 µM (inactive) | > 100 µM (inactive) | > 100 µM (inactive) | > 100 | > 100 µM (inactive) | > 100 µM (inactive) | > 100 µM (inactive) | > 100 µM (inactive) | > 100 µM (inactive) | > 100 µM (inactive) | > 100 µM (inactive) | > 100 µM (inactive) | > 100 µM (inactive) | > 100 µM (inactive) | > 100 µM (inactive) | > 100 µM (inactive) | > 100 µM (inactive) | > 100 µM (inactive) | –
O=C(Cl)C1=C(c2ccccc2)C1c1ccccc1 (stereo not given) | > 100 µM (inactive) | > 100 µM (inactive) | > 100 µM (inactive) | > 100 µM (inactive) | > 100 | > 100 µM (inactive) | > 100 µM (inactive) | > 100 µM (inactive) | > 100 µM (inactive) | > 100 µM (inactive) | – | > 100 µM (inactive) | > 100 µM (inactive) | > 100 µM (inactive) | > 100 µM (inactive) | > 100 µM (inactive) | > 100 µM (inactive) | > 100 µM (inactive) | > 100 µM (inactive) | > 100 µM (inactive)
Cc1cc(Nc2ccc(NS(C)(=O)=O)cc2)c2c(ccc3[nH]ccc32)n1 | 20.4 µM (inactive) | 22.8 µM (inactive) | 21.9 µM (inactive) | 18.8 µM (inactive) | > 100 | 28.6 µM (inactive) | 16.6 µM (inactive) | 7.4 µM (inactive) | 16.1 µM (inactive) | 19.3 µM (inactive) | > 100 µM (inactive) | 26.2 µM (inactive) | 15.9 µM (inactive) | – | 21.7 µM (inactive) | 28.6 µM (inactive) | 17.3 µM (inactive) | 15.7 µM (inactive) | 22.3 µM (inactive) | –
O=C1NC2(CCCCC2)N=C2C(Cl)CCCC12Cl (stereo not given) | > 100 µM (inactive) | > 100 µM (inactive) | > 100 µM (inactive) | > 100 µM (inactive) | > 100 | > 100 µM (inactive) | > 100 µM (inactive) | > 100 µM (inactive) | > 100 µM (inactive) | > 100 µM (inactive) | > 100 µM (inactive) | > 100 µM (inactive) | > 100 µM (inactive) | > 100 µM (inactive) | > 100 µM (inactive) | > 100 µM (inactive) | – | > 100 µM (inactive) | > 100 µM (inactive) | > 100 µM (inactive)
COc1ccc([N+](=O)[O-])c2c(NCC(O)CO)ccnc12 (stereo not given) | 67.6 µM (inactive) | 43.8 µM (inactive) | 20 µM (inactive) | 83.9 µM (inactive) | 16.1 | 22.5 µM (inactive) | 52.7 µM (inactive) | 29 µM (inactive) | > 100 µM (inactive) | 16.9 µM (inactive) | – | > 100 µM (inactive) | 23.1 µM (inactive) | 47.8 µM (inactive) | 42.1 µM (inactive) | 67.5 µM (inactive) | 28.1 µM (inactive) | 22 µM (inactive) | 39.8 µM (inactive) | > 100 µM (inactive)
O=C(NCCCN(CCCCN(CCCNC(=O)C(F)(F)F)CCCc1ccccc1)CCCc1ccccc1)C(F)(F)F | 1.25 µM (inactive) | 2 µM (inactive) | 2.68 µM (inactive) | 2 µM (inactive) | 1.44 | 2.02 µM (inactive) | 1.76 µM (inactive) | 1.48 µM (inactive) | 1.76 µM (inactive) | 1.87 µM (inactive) | 3.45 µM (inactive) | 12.8 µM (inactive) | – | 1.12 µM (active) | 1.98 µM (inactive) | 1.91 µM (inactive) | 1.71 µM (inactive) | 1.8 µM (inactive) | 1.81 µM (inactive) | 2.49 µM (inactive)
CCCCCCCCCCCCCCCCP(=O)(O)OP(=O)(O)OCC1OC(n2cnc3c(N)ncnc32)C(O)C1O (stereo not given) | 22.8 µM (inactive) | 26.7 µM (inactive) | 42.4 µM (inactive) | 46.9 µM (inactive) | 23.8 | 26.4 µM (inactive) | 27.5 µM (inactive) | 22.6 µM (inactive) | 30.6 µM (inactive) | 24.5 µM (inactive) | 31.1 µM (inactive) | 15.5 µM (inactive) | 42.5 µM (inactive) | 20.5 µM (inactive) | 29 µM (inactive) | 15.6 µM (inactive) | 23.7 µM (inactive) | 24.3 µM (inactive) | – | 28.6 µM (inactive)
O=c1ccc(-c2ccc(-n3ccnc3)cc2)nn1CCO | > 100 µM (inactive) | > 100 µM (inactive) | > 100 µM (inactive) | > 100 µM (inactive) | > 100 | > 100 µM (inactive) | > 100 µM (inactive) | 89.3 µM (inactive) | > 100 µM (inactive) | > 100 µM (inactive) | – | > 100 µM (inactive) | – | 39.9 µM (inactive) | > 100 µM (inactive) | > 100 µM (inactive) | > 100 µM (inactive) | > 100 µM (inactive) | > 100 µM (inactive) | > 100 µM (inactive)
NS(=O)(=O)c1ccc(NS(=O)(=O)c2ccc(NC(=O)N(c3ccccc3)c3ccccc3)cc2)cc1 | 68.9 µM (inactive) | > 100 µM (inactive) | 87.1 µM (inactive) | 43.3 µM (inactive) | > 100 | > 100 µM (inactive) | 41.3 µM (inactive) | 52.7 µM (inactive) | 24.9 µM (inactive) | 65.6 µM (inactive) | > 100 µM (inactive) | > 100 µM (inactive) | 48.5 µM (inactive) | – | > 100 µM (inactive) | 50.4 µM (inactive) | 77.4 µM (inactive) | 63.4 µM (inactive) | 35.7 µM (inactive) | –
O=c1ccc2ccc(O)cc2o1 [UMBELLIFERONE] | > 100 µM (inactive) | > 100 µM (inactive) | > 100 µM (inactive) | > 100 µM (inactive) | > 100 | > 100 µM (inactive) | > 100 µM (inactive) | > 100 µM (inactive) | > 100 µM (inactive) | – | > 100 µM (inactive) | > 100 µM (inactive) | > 100 µM (inactive) | > 100 µM (inactive) | > 100 µM (inactive) | > 100 µM (inactive) | > 100 µM (inactive) | > 100 µM (inactive) | > 100 µM (inactive) | > 100 µM (inactive)

— ChEMBL document CHEMBL1201862, “PubChem BioAssay data set” (2004)
